Assay: Degradation study of actives in DMSO at 50° C. by LC
Assay type: physicochemical
Protocol: A degradation study was performed using 2-chloro-6-(trichloromethyl)pyridine/nBPT in DMSO.
A 2-chloro-6-(trichloromethyl)pyridine/NBPT=1/1(w/w) mixture was dissolved in DMSO. LC (liquid chromatography) was performed to analyze the content decrease versus time. All samples were sealed and protected under N2. All samples were stored 50° C.
A C18 column was used, and measured at 255 nm. Retention time: 40 min.
Temperature: 30° C. 15 μL injection. Peak area percentages were calculated to analyze the concentration and are shown in below Table 3.

Clc1cccc(C(Cl)(Cl)Cl)n1 [2-chloro-6-(trichloromethyl)pyridine]
Content remaining, LC peak area percentage (1 week): 100% | Content remaining, LC peak area percentage (2 week): 99% | Content remaining, LC peak area percentage (3 week): 99.4% | Content remaining, LC peak area percentage (4 week): 98.3% | Content remaining, LC peak area percentage (6 week): 95.3% | Content remaining, LC peak area percentage (7 week): 93.2% | Content remaining, LC peak area percentage (8 week): 92.3% | Content remaining, LC peak area percentage (9 week): 90.8% | Content remaining, LC peak area percentage (10 week): 88% | Content remaining, LC peak area percentage (11 week): 86.7% | Content remaining, LC peak area percentage (12 week): 86.4% | Content remaining, LC peak area percentage (13 week): 85% | Content remaining, LC peak area percentage (14 week): 84.33% | Content remaining, LC peak area percentage (15 week): 83.56% | Content remaining, LC peak area percentage (16 week): 81.45% | Content remaining, LC peak area percentage (17 week): 81% | Content remaining, LC peak area percentage (18 week): 80.09%

CCCCNP(N)(N)=S [n-butylthiophosphoric triamide]
Content remaining, LC peak area percentage (Week 1, 1/1 (w/w) mixture in DMSO, 50° C., sealed under N2): 100% | Content remaining, LC peak area percentage (Week 2, DMSO, 50° C.): 99.6% | Content remaining, LC peak area percentage (Week 3, DMSO, 50° C.): 98% | Content remaining, LC peak area percentage (Week 4, DMSO, 50° C.): 97.6% | Content remaining, LC peak area percentage (Week 6, DMSO, 50° C.): 96.5% | Content remaining, LC peak area percentage (Week 7, DMSO, 50° C.): 95.3% | Content remaining, LC peak area percentage (Week 8, DMSO, 50° C.): 94.7% | Content remaining, LC peak area percentage (Week 9, DMSO, 50° C.): 93% | Content remaining, LC peak area percentage (Week 10, DMSO, 50° C.): 92.2% | Content remaining, LC peak area percentage (Week 11, DMSO, 50° C.): 92.1% | Content remaining, LC peak area percentage (Week 12, DMSO, 50° C.): 91.7% | Content remaining, LC peak area percentage (Week 13, DMSO, 50° C.): 91% | Content remaining, LC peak area percentage (Week 14, DMSO, 50° C.): 90.88% | Content remaining, LC peak area percentage (Week 15, DMSO, 50° C.): 90.01% | Content remaining, LC peak area percentage (Week 16, DMSO, 50° C.): 99.55% | Content remaining, LC peak area percentage (Week 17, DMSO, 50° C.): 89.06% | Content remaining, LC peak area percentage (Week 18, DMSO, 50° C.): 88.6%

Source: patent US12116325B2, “Increased longevity of the nitrogen content of soil through improved liquid delivery formulations of nitrification inhibitors designed for urea and manure based fertilizers” (SOILGENIC TECHNOLOGIES, LLC, priority 2014, dated 2024)
